{"source": "patent US20240261301A1", "about": "“COMPOSITION COMPRISING INOTODIOL FOR PREVENTION OR TREATMENT OF MUSCULAR DISEASE” (ANIMUSCURE INC., priority 2021, published 2024)", "key": {"high-fat diet mice": {"tested_on": "high-fat diet mice", "experiment": "Exercise capacity in high-fat diet mouse model (treadmill, grip test)", "assay_type": "in vivo", "conditions": "high-fat diet-fed mice", "experimental": "When inotodiol was administered to high-fat diet mice, the effects on muscle strength and exercise performance ability were determined. After inotodiol was administered to a high-fat diet-fed mouse model, the exercise duration and movement distance were measured through a treadmill experiment. […] As a result of the grip test, it was also confirmed that the high-fat diet mouse model had lower muscle strength than the mean muscle strength."}, "C2C12 cells": {"tested_on": "C2C12 cells", "experiment": "Myoblast differentiation of C2C12 cells (MHC immunostaining and immunoblot)", "assay_type": "cell-based, mouse", "protocol": "The C2C12 cells were cultured in a general cell culture medium and a differentiation medium, respectively. DMEM supplemented with 15% fetal bovine serum was used as the normal cell culture medium (i.e., a growth medium (GM)), and DMEM supplemented with 2% horse serum was used as the differentiation medium (DM).\nThe C2C12 cells whose differentiation was induced in Example 1 were washed with 1× PBS, and then fixed with 3.7% paraformaldehyde at room temperature. Thereafter, a permeabilization buffer was added thereto, and reacted at room temperature. Unspecific antibody binding was inhibited by reacting with PBST (a blocking buffer) containing 3% BSA and PBS containing 0.1% Tween 20. A primary antibody against a myosin heavy chain (MHC) was diluted 1:500 in a blocking buffer, added, and reacted at room temperature. A secondary antibody diluted 1:5000 in a blocking buffer was added, and reacted at room temperature.\nThe C2C12 cells whose differentiation was induced in Example 1 were collected, lysed by adding a lysis buffer (20 mM Tris-HCl, pH 8.0, 150 mM NaCl, 1% Triton X, a proteinase inhibitor), and then the cell lysis sample was quantified. Thereafter, the same amount of protein was subjected to SDS-PAGE electrophoresis, and transferred to a PVDF membrane. […]"}, "PGC-1α": {"tested_on": "PGC-1α", "experiment": "PGC-1α mRNA expression by qRT-PCR in C2C12 cells", "assay_type": "cell-based, mouse", "conditions": "differentiating C2C12, qRT-PCR, normalized to 18s rRNA, vs control", "experimental": "(§1) Cells were seeded into the cell culture medium (GM), and cultured for 24 hours. Thereafter, the differentiation medium (DM) was treated with DMSO and inotodiol (0.1, 0.5, 1.0, and 10 μM) at different concentrations, and differentiation was induced for 2 to 3 days.\nThe C2C12 cells whose differentiation was induced in Example 1 were lysed using an Easy-spin Total RNA Extraction kit, and chloroform was added thereto. Then, the C2C12 cells were centrifuged. After the supernatant was separated, the same volume of isopropanol was added and bound to the cells. After centrifugation, the cells were washed with 70% EtOH mixed with DEPC water, and the concentration of RNA was quantified by adding 20 to 50 μL of a DEPC solution. RNA was reverse-transcribed using a PrimeScript cDNA synthesis kit to synthesize cDNA. Then, the gene expression was analyzed by qRT-PCR in a real-time PCR system using SYBR Premix EX Taq. Fold changes in gene expression were normalized against the expression of ribosomal gene 18s rRNA."}, "normal mice": {"tested_on": "normal mice", "experiment": "Long-term (2 months) inotodiol administration to normal mice", "assay_type": "in vivo, mouse", "experimental": "For normal mice in which the muscle damage or muscle atrophy was not induced, an experiment was conducted to determine whether there was an effect of increasing muscle mass and muscle strength when inotodiol was administered. For the mice to which inotodiol was administered for 2 months, an experiment was conducted to measure a change in muscle mass and muscle strength of hindlimb muscles after the administration of inotodiol (a grip test)."}, "muscle fibrosis": {"tested_on": "muscle fibrosis", "experiment": "Muscle fibrosis in CTX muscle damage mouse model", "assay_type": "in vivo", "conditions": "then inotodiol"}, "[1]": {"tested_on": "mouse model in which myoatrophy is induced by DEX", "experiment": "Myotube atrophy in myoatrophy-induced (DEX) mouse model", "assay_type": "in vivo", "conditions": "DEX (dexamethasone 20 mg/kg) model", "experimental": "Experimental animals were grouped into 10 animals having a similar body weight, and dexamethasone was administered at a dose of 20 mg/kg to one group to induce […].\nFor the myoatrophy mouse model of Example 3, the effects of alleviating and recovering myotube atrophy were determined when inotodiol was administered."}, "ATPSA, MTCO1, and NDUF88": {"tested_on": "ATPSA, MTCO1, and NDUF88", "experiment": "Mitochondrial activity markers (T-OxPHOS immunoblotting) in C2C12 myoblasts", "assay_type": "cell-based, mouse", "conditions": "inotodiol at each concentration", "experimental": "as §1\nTo induce the differentiation of C2C12 myoblasts in the same manner as in Example 1 and check mitochondrial activity, the expression characteristics of a T-OxPHOS antibody mixed with ATPSA, MTCO1, and NDUF88 were confirmed through immunoblotting. For each of the proteins included in the T-OxPHOS antibody, ATPSA is a constituent protein of ATP synthase that contributes to the ATP synthesis in mitochondria, MTCO1 is associated with the oxidase activity of cytochrome-c, which is a component of the electron transport system in the inner membrane of mitochondria, and NDUF 88 encodes a subunit of NADH:ubiquinone oxidoreductase (Complex 1), which is the first enzyme complex in the mitochondrial electron transport system."}, "PGC-1α promoter": {"tested_on": "PGC-1α promoter", "experiment": "PGC-1α reporter (luciferase) assay", "assay_type": "cell-based, mouse", "protocol": "Immediately after cells were seeded at a density of 1×10^4 cells/well in a 96-well culture plate, the cells were transfected by treating the cells with PGC-1α (DNA) and a plasmid at a ratio of [150 ng/10 μL]+[0.3 μL/10 μL] per well. […] After 24 hours of drug treatment, the cells were lysed in 30 μL of a passive lysis buffer (Promega) per well, and the dissolved cell solution was transferred to a plate for luminometer reading. Then, an equal amount of luciferin, which is a substrate of luciferase, was subjected to an enzymatic reaction to determine the degree of luminescence. The measured values were standardized for each well and plate, and expressed as a relative ratio using the measured values in the wells treated with DMSO, which is a solvent of the compound, as the control. The expression level of luciferase in the PGC-1α reporter cell line depends on the stimulation received by a PGC-1α promoter. That is, if the compound is a PGC-1α expression inducer, it stimulates the PGC-1a promoter to increase the expression of luciferase, and if the compound is a PGC-1α expression inhibitor, luciferase expression decreases."}, "muscle stem cells": {"tested_on": "muscle stem cells", "experiment": "Muscle stem cell proliferation (BrdU analysis) after CTX muscle damage", "assay_type": "in vivo, mouse", "experimental": "To induce muscle damage, CTX was injected into the mice to which inotodiol was administered once a day for 7 days. Then, it was determined through BrdU analysis whether or not the proliferation of muscle stem cells was enhanced (FIG. 10)."}, "[2]": {"tested_on": "mouse model in which muscle damage is induced by CTX", "conditions": "CTX mice", "protocol": "Ten 5-month-old C57BL/6 male mice were used as experimental animals.\nHowever, each of the weights of the hindlimb muscle tissues, such as the tibialis anterior muscle (TA), extensor digitorum longus muscle (EDL), soleus muscle (Sol), and gastrocnemius muscle (Gas), of the experimental animals was measured.\nHematoxylin & eosin staining (H&E staining) was performed using the TA muscle isolated from the tissue of each of the experimental animals. Frozen sections fixed with 4% paraformaldehyde were stained with hematoxylin and stained with eosin for contrast staining, mounted, and observed under an optical microscope.\nThe relative mRNA expression levels were compared for each muscle type of Myh7 (MHCI), Myh2 (MHCIIa), Myh4 (MHCIIb), and Myh1 (MHCIIx)."}, "[3]": {"conditions": "2 months administration, vs control"}, "[4]": {"conditions": "inotodiol once a day for 7 days, then CTX"}, "[5]": {"conditions": "300 μg/kg oral, 21 days after CTX"}}}
{"smiles": "CC(C)=CC[C@@H](O)[C@@H](C)[C@H]1CC[C@@]2(C)C3=C(CC[C@]12C)[C@@]1(C)CC[C@H](O)C(C)(C)C1CC3", "note": "(some centres unmarked) [inotodiol]", "values": [{"measurement": "exercise capacity (exercise duration and movement distance, treadmill)", "setting": "high-fat diet mice", "result": "recovered exercise capacity to the level of the normal control"}, {"measurement": "muscle strength (grip test)", "setting": "high-fat diet mice", "result": "muscle strength was improved"}, {"measurement": "formation of multinucleated myotubes", "setting": "C2C12 cells; C2C12, inotodiol 0.1, 0.5, 1.0, 10 μM, immunostaining on day 2 of differentiation", "result": "increased in a concentration-dependent manner"}, {"measurement": "expression level of MHC (differentiation marker)", "setting": "C2C12 cells; C2C12, inotodiol at different concentrations, immunoblot, vs DMSO-treated control", "result": "increased in a concentration-dependent manner"}, {"measurement": "mRNA expression for PGC-1α", "setting": "PGC-1α", "result": "significantly increased compared to the control"}, {"measurement": "hindlimb muscle mass", "setting": "normal mice; [3]", "result": "increased"}, {"measurement": "muscle strength (grip test)", "setting": "normal mice; [3]", "result": "also increased"}, {"measurement": "weight of fat relative to weight gain", "setting": "normal mice; long-term administration", "result": "increased relatively less"}, {"measurement": "weight-to-muscle ratio", "setting": "normal mice; long-term administration", "result": "higher than that of the non-administered group"}, {"measurement": "expression levels of PGC-1α and mitochondrial-related genes in muscle", "setting": "normal mice; long-term administration, vs control", "result": "increased compared to the control"}, {"measurement": "area of the muscle tissue in which fibrosis progressed", "setting": "muscle fibrosis", "result": "reduced"}, {"measurement": "muscle fibrosis in muscle tissue", "setting": "muscle fibrosis", "result": "fibrosis was ameliorated"}, {"measurement": "cross-sectional area of myotubes", "setting": "[1]", "result": "restored to the same level as that of the normal group"}, {"measurement": "size of muscles and muscle fibers", "setting": "[1]", "result": "increased"}, {"measurement": "expression level of mitochondrial proteins (ATPSA, MTCO1, NDUF88)", "setting": "ATPSA, MTCO1, and NDUF88", "result": "increased in proportion to the concentration of inotodiol"}, {"measurement": "luciferase activity for PGC-1α", "setting": "PGC-1α promoter; inotodiol 0.1, 0.5, 1.0 μM, 24 h, relative to DMSO", "result": "increased in an inotodiol concentration-dependent manner"}, {"measurement": "luciferase activity for PGC-1α compared with positive control", "setting": "PGC-1α promoter; vs 0.5 mM AICAR positive control", "result": "higher than that of 0.5 mM AICAR"}, {"measurement": "expression of genes involved in muscle growth", "setting": "muscle stem cells; CTX muscle damage", "result": "effect of enhancing the expression of genes involved in muscle growth was confirmed"}, {"measurement": "relative mRNA expression levels of genes involved in the cell cycle", "setting": "muscle stem cells; CTX muscle damage", "result": "increased"}, {"measurement": "expression level of BrdU in muscle tissues", "setting": "muscle stem cells; [4]", "result": "increased"}, {"measurement": "expression levels of Pax7 and Ki67 and expression ratio of Ki67 to Pax7", "setting": "muscle stem cells; [4]", "result": "increased"}, {"measurement": "increase in muscle mass, extensor digitorum longus muscle (EDL), vs control", "setting": "[2]; [5]", "result": 18.9, "unit": "%"}, {"measurement": "increase in muscle mass, gastrocnemius muscle (Gas), vs control", "setting": "[2]; [5]", "result": 9.5, "unit": "%"}, {"measurement": "increase in muscle mass, soleus muscle (Sol), vs control", "setting": "[2]; [5]", "result": 5.2, "unit": "%"}, {"measurement": "increase in muscle mass, tibialis anterior muscle (TA), vs control", "setting": "[2]; [5]", "result": 16.0, "unit": "%"}, {"measurement": "expression of Myh2 (MHCIIa)", "setting": "[2]; 21 days after muscle damage", "result": "tended to greatly increase"}, {"measurement": "relative mRNA expression levels of muscle fiber types Myh7, Myh2, Myh4, Myh1", "setting": "[2]; 21 days after muscle damage", "result": "no significant difference"}, {"measurement": "blood glucose", "setting": "[2]; day 21 after induction of muscle damage, vs control", "result": "blood glucose-lowering effect was confirmed"}, {"measurement": "increase in grip strength vs control", "setting": "[2]; day 21 after muscle damage, grip strength test", "result": "approximately 6.8%"}, {"measurement": "change in body weight", "setting": "[2]; inotodiol 300 μg/kg oral, 21 days after CTX", "result": "no change in body weight was observed"}, {"measurement": "increase in muscle fiber cross-sectional area (CSA) of TA muscle vs control", "setting": "[2]; laminin staining", "result": 89.4, "unit": "%"}, {"measurement": "muscle regeneration (H&E staining of TA muscle)", "setting": "[2]; vs control", "result": "significant muscle regeneration effect"}]}
